4 molecules from PubChem BioAssay AID2060351 (Molecular Pharmacology Branch, DTP, NCI, 2025) can be followed below.

The subject of this experiment is 521955-158-R7-J2-PDC spheroids, viability % test/control. Put plainly: Anticancer human tumor 521955-158-R7-J2-PDC patient-derived pancreatic carcinoma cell line growth inhibition [TAK]. As to conditions: spheroids with HUVEC and MSC; for viability, T/C: stronger effect = lower value. An outline of the steps:
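Drug combinations, each paired with TAK-243 or ipatasertib, were tested on multi-cell spheroids of 60% malignant cells, 25% HUVEC and 15% hMSC. Top concentrations were at or near the clinical Cmax (10 microM if undetermined), decreasing by half-log; viability is given as % test/control.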

[1] abbreviates: curve of first compound, second compound 0.3 µM.
The mark [2] stands for this setting: curve of first compound, second compound 0.949 µM.
[3] abbreviates: curve of first compound, second compound 3 µM.
Setting [4] is: curve of first compound, second compound 9.49 µM.
[5] abbreviates: curve of first compound, second compound 30 µM.

Several values for one entry are separate records, joined by “and”; a condition that tells them apart may be missing. Identical values can stand only once.
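Further: spheroids exposed to compound for 7 days before readout.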
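Wherever viability, T/C is given: 100% = DMSO vehicle control wells.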

Broadly, the IC50 is the midpoint of a concentration-inhibition curve. One may read the viability, T/C as the ratio of treated to control. As to `Cn1cnc2c(F)c(Nc3ccc(Br)cc3Cl)c(C(=O)NOCCO)cc21` + CC(C)NCC(C(=O)N1CCN(c2ncnc3c2C(C)CC3O)CC1)c1ccc(Cl)cc1, the half-maximal inhibitory concentration (IC50) is 108 nM under setting [1]; 65 nM under setting [2]; 33.9 nM under setting [3]; 19.9 nM under setting [4]; 17.4 nM under setting [5]. In addition, the viability, T/C is 71.3% (second compound 0.3 µM, first compound 0.00949 µM); 61.7% (second compound 0.3 µM, first compound 0.03 µM); 45.6% (second compound 0.3 µM, first compound 0.0949 µM); 45.5% (second compound 0.3 µM, first compound 0.3 µM); 28.2% (second compound 0.3 µM, first compound 0.949 µM); 13.9% (second compound 0.3 µM, first compound 3 µM). Besides, the viability, T/C is 76.7% (second compound 0.949 µM, first compound 0.00949 µM); 55.5% (second compound 0.949 µM, first compound 0.03 µM); 46.3% (second compound 0.949 µM, first compound 0.0949 µM); 31.3% (second compound 0.949 µM, first compound 0.3 µM); 25.5% (second compound 0.949 µM, first compound 0.949 µM); 9.79% (second compound 0.949 µM, first compound 3 µM). The viability, T/C (second compound 3 µM, first compound 0.00949 µM) is 63.9%; the viability, T/C (second compound 3 µM, first compound 0.03 µM) was 54.7%; the viability, T/C (second compound 3 µM, first compound 0.0949 µM) is 32.4%; the viability, T/C (second compound 3 µM, first compound 0.3 µM) was 31.5%; the viability, T/C (second compound 3 µM, first compound 0.949 µM) was 23.7%; the viability, T/C (second compound 3 µM, first compound 3 µM) is 9.02%. For the same molecule, the viability, T/C was 61.8% (second compound 9.49 µM, first compound 0.00949 µM); 40.4% (second compound 9.49 µM, first compound 0.03 µM); 34% (second compound 9.49 µM, first compound 0.0949 µM); 27.5% (second compound 9.49 µM, first compound 0.3 µM); 25.7% (second compound 9.49 µM, first compound 0.949 µM); 10.8% (second compound 9.49 µM, first compound 3 µM). Also, the viability, T/C was 56.6% (second compound 30 µM, first compound 0.00949 µM); 43.3% (second compound 30 µM, first compound 0.03 µM); 34.6% (second compound 30 µM, first compound 0.0949 µM); 30% (second compound 30 µM, first compound 0.3 µM); 17.6% (second compound 30 µM, first compound 0.949 µM); 7.96% (second compound 30 µM, first compound 3 µM).

For the molecule `COC1CC2CCC(C)C(O)(O2)C(=O)C(=O)N2CCCCC2C(=O)OC(C(C)CC2CCC(OCCO)C(OC)C2)CC(=O)C(C)C=C(C)C(O)C(OC)C(=O)C(C)CC(C)C=CC=CC=C1C` (centres undefined), the viability, T/C (compound 0.000316 µM) was 103%; the viability, T/C (compound 0.001 µM) was 77.4% and 84.4%; the viability, T/C (compound 0.00316 µM) was 75.2% and 91.7%; the viability, T/C (compound 0.01 µM) is 90.3% and 101%; the viability, T/C (compound 0.0316 µM) was 109% and 117%; the viability, T/C (compound 0.1 µM) is 102% and 85.5%. For the same molecule, for the setting “curve of compound”, the IC50 was more than 100 nM.

In the case of `Cn1cnc2c(F)c(Nc3ccc(Br)cc3Cl)c(C(=O)NOCCO)cc21`, the viability, T/C was 66.3% and 85.1% (compound 0.00949 µM); 54.9% and 61.7% (compound 0.03 µM); 38.7% and 44.3% (compound 0.0949 µM); 31.6% and 43.3% (compound 0.3 µM); 25.7% and 30% (compound 0.949 µM); 14.6% and 16.5% (compound 3 µM). For the same molecule, where the note is “curve of compound”, the IC50 is 41.6 nM and 87.7 nM.

Regarding `COc1c(OCCCN2CCOCC2)ccc2c3n(c(=NC(=O)c4cnc(N)nc4)nc12)CCN3` + CC(C)NCC(C(=O)N1CCN(c2ncnc3c2C(C)CC3O)CC1)c1ccc(Cl)cc1, the concentration for half-maximal inhibition (IC50) runs as follows: under setting [1], 21.9 nM; under setting [2], 22 nM; under setting [3], 7.21 nM; under setting [4], 6.2 nM; under setting [5], 3.38 nM. The viability, T/C reads like this: (second compound 0.3 µM, first compound 0.00316 µM) 102%; (second compound 0.3 µM, first compound 0.01 µM) 67.6%; (second compound 0.3 µM, first compound 0.0316 µM) 40.9%; (second compound 0.3 µM, first compound 0.1 µM) 27.5%; (second compound 0.3 µM, first compound 0.316 µM) 13.7%; (second compound 0.3 µM, first compound 1 µM) 11%. The viability, T/C (second compound 0.949 µM, first compound 0.00316 µM) was 81%; the viability, T/C (second compound 0.949 µM, first compound 0.01 µM) is 66.5%; the viability, T/C (second compound 0.949 µM, first compound 0.0316 µM) is 43.1%; the viability, T/C (second compound 0.949 µM, first compound 0.1 µM) was 19.6%; the viability, T/C (second compound 0.949 µM, first compound 0.316 µM) is 13.7%; the viability, T/C (second compound 0.949 µM, first compound 1 µM) was 9.02%. Also, the viability, T/C (second compound 3 µM, first compound 0.00316 µM) was 55%; the viability, T/C (second compound 3 µM, first compound 0.01 µM) was 51.1%; the viability, T/C (second compound 3 µM, first compound 0.0316 µM) is 29.2%; the viability, T/C (second compound 3 µM, first compound 0.1 µM) is 24.9%; the viability, T/C (second compound 3 µM, first compound 0.316 µM) is 13%; the viability, T/C (second compound 3 µM, first compound 1 µM) was 10.4%. Moreover, the viability, T/C was 64.3% (second compound 9.49 µM, first compound 0.00316 µM); 36.3% (second compound 9.49 µM, first compound 0.01 µM); 31% (second compound 9.49 µM, first compound 0.0316 µM); 21.7% (second compound 9.49 µM, first compound 0.1 µM); 14.3% (second compound 9.49 µM, first compound 0.316 µM); 12.2% (second compound 9.49 µM, first compound 1 µM). Moreover, the viability, T/C is, setting by setting: (second compound 30 µM, first compound 0.00316 µM) 50.4%; (second compound 30 µM, first compound 0.01 µM) 40.6%; (second compound 30 µM, first compound 0.0316 µM) 27.8%; (second compound 30 µM, first compound 0.1 µM) 19.8%; (second compound 30 µM, first compound 0.316 µM) 17.1%; (second compound 30 µM, first compound 1 µM) 11.5%.
